Assay [1] has as its system Candida albicans ATCC 18804. The assay is described as follows: MIC in yeasts, NCCLS M27-A2 broth microdilution, RPMI 1640 (Table 9, letter e). The format is cell-based. The following applies: ATCC 18804. The gist of the method: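 Broth microdilution per NCCLS M27-A2 in RPMI 1640 with glutamine and phenol red, final inoculum 0.5×10^3–2.5×10^3 CFU/milliliter. Incubated 24 to 48 hours at 37° C; MIC is the lowest peptide concentration with no visible growth.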
In general terms: In broth dilution the organism is exposed to a series of concentrations in liquid medium.

For assay [2], the system named is Salmonella dublin (Lane). The following applies: pH 7.4.
Assay [3] concerns Staphylococcus aureus ATCC 29213. The following applies: ATCC 29213, pH 7.4.
Assay [4] has as its system Propionibacterium acnes ATCC 6919. The format is cell-based. The procedure:
A second method that was used to determine the MIC in P. acnes for selected antimicrobial agents was a non-standard broth microdilution method that used an assay buffer composed of reinforced Clostridial broth. Briefly, a log-phase bacterial culture of P. acnes was used to inoculate wells of a 96-well plate so that the final inoculum for each well contained 5×10^5 to 1×10^6 CFU/milliliter. […] Plates were incubated for 48-72 hours at 37° C. in a GasPak anaerobic chamber. The lowest concentration of peptide that contained no visible growth as evidenced by a lack of turbidity when compared to the control (no peptide) was determined as the MIC. MIC values that utilized this method of MIC determination are indicated in Table 9 with a subscript letter “d.”

Assay [5] has as its system Pseudomonas aeruginosa ATCC 27853. Briefly: MIC, NCCLS M7-A6 broth microdilution (Table 9, no superscript). The following applies: ATCC 27853. The format is cell-based. In a few lines:
(§1)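 Values come from a broth microdilution assay run in cation-adjusted Mueller Hinton broth with an inoculum of 5×10^5 to 1×10^6 CFU/milliliter, incubated overnight at 37° C and read as absence of visible turbidity.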

Assay [6] relates to Staphylococcus epidermidis ATCC 12228. The assay is described as above. The following applies: ATCC 12228. The format is cell-based. The gist of the method: as §1
The test system of assay [7] is Escherichia coli ATCC 25922. The description is as above. The following applies: ATCC 25922. The format is cell-based. The gist of the method: as §1
For assay [8], the system named is Salmonella dublin (Lane). Described as above. The format is cell-based. In a few lines:
as §1

The next assay concerns IL-12 release. The assay is described as follows: Anti-inflammation assay: IL-12 release in PBMCs stimulated by P. acnes (IL-12p70 ELISA). The format is cell-based, human. The following applies: for reduction of IL-12 release in PBMs stimulated by P. acnes: 12.5 to 0.78 micrograms per milliliter; for IC50: PBMCs stimulated by P. acnes, over night, read-out: IC50 value, reduction of IL-12 release. How it is done: An assay that detected reductions in IL-12 released in whole human blood cells (PBMCs) was utilized to detect reductions in inflammation elicited by peptide compositions described herein. The assay utilized the following materials and reagents: whole human blood cells; P. acnes; peptides 55, 67 and 93 from Table 3; IL-12p70 ELISA kit (eBiosciences); RPMI 1640 growth medium; PBS; and a 96-well microtiter plate. PBMCs were prepared from whole human blood cells according to standard procedures and cells were resuspended in RPMI 1640 and 10% FCS. Cells were seeded at 250,000 cells per well in a 96-well microtiter plate and incubated for 90 minutes. […] Controls included untreated cells, P. acnes alone or a peptide alone. The cells were incubated over night at 37° C., and cell supernatants were collected and stored at −80° C. for use in an IL-12 ELISA assay (eBiosciences). A 1:1 dilution of supernatant was utilized to perform the IL-12 ELISA following the protocol provided by the manufacturer.

The test system of assay [9] is Staphylococcus aureus ATCC 29213. The assay is described as follows: MIC, NCCLS M7-A6 broth microdilution, cation-adjusted Mueller Hinton broth (Table 9, no superscript). It is filed as cell-based. The following applies: ATCC 29213. In a few lines:
as §1

Converted amounts (≈) assume the structure as drawn. Where two headings read alike, the source gives them in different places. Non-standard residues stand in square brackets, D forms with d. Residues, ends and D or L forms follow the SMILES beside them. *: point of attachment. Stearoyl = CCCCCCCCCCCCCCCCCC(=O)*; Lauroyl = CCCCCCCCCCCC(=O)*

As a reminder, the IC50 is the point on the concentration scale where inhibition reaches its midpoint.

On to `CSCC[C@@H](NC(=O)[C@@H](Cc1ccccc1)NC(=O)[C@@H](CC(N)=O)NC(=O)[C@@H](CCCNC(=N)N)NC(=O)[C@@H](CO)NC(=O)[C@@H](Cc1c[nH]c2ccccc12)NC(=O)[C@@H](CC(=O)O)NC(=O)[C@@H](CCCNC(=N)N)NC(=O)[C@@H](Cc1c[nH]c2ccccc12)NC(=O)[C@@H](CCCNC(=N)N)NC(=O)[C@@H](CO)NC(=O)[C@@H](CCCNC(=N)N)NC(C)=O)C(=O)N[C@H](CCCNC(=N)N)C(N)=O` [Peptide 95, Ac-rsrwrdwsrnfmr-NH2] (Ac-[dR][dS][dR][dW][dR][dD][dW][dS][dR][dN][dF][dM][dR]-NH2), for which the “MIC C. albicans” value in [1] is on record as 16e ug/mL. Further, the “MIC S. dublin” value against Salmonella dublin (Lane) [2] was 6b ug/mL. The “MIC S. aureus” value in assay [3] worked out at 12.5b ug/mL. The “MIC P. acnes” value in assay [4] turned out to be 12.5 µg·days/mL.

For the compound `CSCC[C@H](NC(=O)[C@H](Cc1ccccc1)NC(=O)[C@H](CC(N)=O)NC(=O)[C@H](CCCNC(=N)N)NC(=O)[C@H](CO)NC(=O)[C@@H](NC(=O)[C@H](CC(=O)O)NC(=O)[C@H](CCCNC(=N)N)NC(=O)[C@H](Cc1c[nH]c2ccccc12)NC(=O)[C@H](CCCNC(=N)N)NC(=O)[C@H](CO)NC(=O)[C@H](CCCNC(=N)N)NC(C)=O)C(C)C)C(=O)N[C@@H](CCCNC(=N)N)C(N)=O` [Peptide 93, Ac-RSRWRDVSRNFMR-NH2] (Ac-RSRWRDVSRNFMR-NH2), the “MIC P. aeruginosa” value in assay [5] was above 64 µg/mL. Further, the “MIC S. epidermidis” value in [6] was above 64 µg/mL. In addition, the “MIC E. coli” value in [7] was above 64 µg/mL. Also, in the assay with Salmonella dublin (Lane) [8], the “MIC S. dublin” value was above 64 µg/mL. Also, in the assay on IL-12 release, the “reduction of IL-12 release in PBMs stimulated by P. acnes” value is “dose response of reduction of IL-12 release” and the IC50 turned out to be 800 nM. Besides, the “MIC S. aureus” value in assay [9] is above 64 µg/mL.

With `CSCC[C@H](NC(=O)[C@H](Cc1ccccc1)NC(=O)[C@H](CC(N)=O)NC(=O)[C@H](CCCNC(=N)N)NC(=O)[C@H](CO)NC(=O)[C@H](Cc1c[nH]c2ccccc12)NC(=O)[C@H](CC(=O)O)NC(=O)[C@H](CCCNC(=N)N)NC(=O)[C@H](Cc1c[nH]c2ccccc12)NC(=O)[C@H](CCCNC(=N)N)NC(=O)[C@H](CO)NC(=O)[C@H](CCCNC(=N)N)NC(=O)CNC(=O)[C@@H](NC(=O)[C@H](CCCNC(=N)N)NC(=O)[C@H](CO)NC(=O)[C@@H](NC(=O)[C@H](CCCNC(=N)N)NC(=O)[C@@H](NC(C)=O)[C@@H](C)O)C(C)C)[C@@H](C)O)C(=O)N[C@@H](CCCNC(=N)N)C(=O)N[C@@H](C)C(=O)N[C@@H](C)C(=O)N[C@@H](CCCN)C(=O)N[C@@H](CCCN)C(=O)N[C@@H](CCCN)C(=O)N[C@@H](CCCN)C(=O)N[C@@H](CCCN)C(=O)N[C@@H](CCCN)C(=O)N[C@@H](CCCN)C(=O)N[C@@H](CCCN)C(N)=O` [Peptide 3, Ac-TRVSRTGRSRWRDWSRNFMRAAOOOOOOOO-NH2], the “MIC P. aeruginosa” value in assay [5] is above 64 µg/mL. For the same compound, the “MIC S. epidermidis” value in assay [6] is above 64 µg/mL. Further, in assay [7], the “MIC E. coli” value was above 64 µg/mL. For the same compound, the “MIC S. dublin” value against Salmonella dublin (Lane) [2] is given as 6b ug/mL. Further, the “MIC S. aureus” value in assay [3] is 6b ug/mL. Moreover, the “MIC P. acnes” value in [4] was found to be 6 µg·days/mL.

As for `CCCCCCCCCCCCCCCCCC(=O)N[C@H](C(=O)N[C@@H](CCCNC(=N)N)C(=O)N[C@H](C(=O)N[C@@H](CO)C(=O)N[C@@H](CCCNC(=N)N)C(=O)N[C@H](C(=O)NCC(=O)N[C@@H](CCCNC(=N)N)C(=O)N[C@@H](CO)C(=O)N[C@@H](CCCNC(=N)N)C(=O)N[C@@H](Cc1c[nH]c2ccccc12)C(=O)N[C@@H](CCCNC(=N)N)C(=O)N[C@@H](CC(=O)O)C(=O)N[C@@H](Cc1c[nH]c2ccccc12)C(=O)N[C@@H](CO)C(=O)N[C@@H](CCCNC(=N)N)C(=O)N[C@@H](CC(N)=O)C(=O)N[C@@H](Cc1ccccc1)C(=O)N[C@@H](CCSC)C(=O)N[C@@H](CCCNC(=N)N)C(N)=O)[C@@H](C)O)C(C)C)[C@@H](C)O` [Peptide 67] (Stearoyl-TRVSRTGRSRWRDWSRNFMR-NH2), the “MIC S. dublin” value in the assay with Salmonella dublin (Lane) [8] is 64 µg/mL (≈ 22.2 µM). Moreover, the “reduction of IL-12 release in PBMs stimulated by P. acnes” value with IL-12 release was “dose response of reduction of IL-12 release”. Moreover, the “MIC S. aureus” value in assay [9] is 64 µg/mL (≈ 22.2 µM).

Turning to `CSCC[C@H](NC(=O)[C@H](Cc1ccccc1)NC(=O)[C@H](CC(N)=O)NC(=O)[C@H](CCCNC(=N)N)NC(=O)[C@H](C)NC(=O)[C@H](Cc1c[nH]c2ccccc12)NC(=O)[C@H](CC(=O)O)NC(=O)[C@H](CCCNC(=N)N)NC(=O)[C@H](Cc1c[nH]c2ccccc12)NC(=O)[C@H](CCCNC(=N)N)NC(=O)[C@H](CO)NC(=O)[C@H](CCCNC(=N)N)NC(=O)CNC(=O)[C@@H](NC(=O)[C@H](CCCNC(=N)N)NC(=O)[C@H](C)NC(=O)[C@@H](NC(=O)[C@H](CCCNC(=N)N)NC(=O)[C@@H](NC(C)=O)[C@@H](C)O)C(C)C)[C@@H](C)O)C(=O)N[C@@H](CCCNC(=N)N)C(N)=O` [Peptide 37] (Ac-TRVARTGRSRWRDWARNFMR-NH2), the “MIC P. aeruginosa” value in [5] was above 64 µg/mL. Also, the “MIC S. epidermidis” value in assay [6] was above 64 µg/mL. In assay [7], the “MIC E. coli” value is above 64 µg/mL. Besides, the “MIC C. albicans” value in assay [1] is 64e ug/mL. The “MIC S. dublin” value against Salmonella dublin (Lane) [2] came out at 25b ug/mL. The “MIC S. aureus” value in [3] turned out to be 25b ug/mL. In addition, the “MIC P. acnes” value in assay [4] came to 100 µg·days/mL.

Regarding `CSCC[C@@H](NC(=O)[C@@H](Cc1ccccc1)NC(=O)[C@@H](CC(N)=O)NC(=O)[C@@H](CCCNC(=N)N)NC(=O)[C@@H](CO)NC(=O)[C@@H](Cc1c[nH]c2ccccc12)NC(=O)[C@@H](CC(=O)O)NC(=O)[C@@H](CCCNC(=N)N)NC(=O)[C@@H](Cc1c[nH]c2ccccc12)NC(=O)[C@@H](CCCNC(=N)N)NC(=O)[C@@H](CO)NC(=O)[C@@H](CCCNC(=N)N)NC(=O)CNC(=O)[C@H](NC(=O)[C@@H](CCCNC(=N)N)NC(=O)[C@@H](CO)NC(=O)[C@H](NC(=O)[C@@H](CCCNC(=N)N)NC(=O)[C@H](NC(C)=O)[C@H](C)O)C(C)C)[C@H](C)O)C(=O)N[C@H](CCCNC(=N)N)C(=O)N[C@H](C)C(=O)N[C@H](C)C(=O)N[C@H](CCCCN)C(=O)N[C@H](CCCCN)C(=O)N[C@H](CCCCN)C(=O)N[C@H](CCCCN)C(=O)N[C@H](CCCCN)C(=O)N[C@H](CCCCN)C(=O)N[C@H](CCCCN)C(=O)N[C@H](CCCCN)C(N)=O` [Peptide 31, Ac-trvsrtgrsrwrdwsrnfmraakkkkkkkk-NH2], the “MIC P. aeruginosa” value in [5] is above 64 µg/mL. Also, the “MIC S. epidermidis” value in assay [6] is 8 µg/mL (≈ 2.09 µM). Besides, the “MIC E. coli” value in assay [7] is above 64 µg/mL. In addition, the “MIC S. dublin” value against Salmonella dublin (Lane) [2] is recorded as 6b ug/mL. Further, the “MIC S. aureus” value in [3] worked out at 3b ug/mL. Moreover, the “MIC P. acnes” value in [4] is 12.5 µg·days/mL.

On to `CCCCCCCCCCCC(=O)N[C@@H](CCCNC(=N)N)C(=O)N[C@@H](CO)C(=O)N[C@@H](CCCNC(=N)N)C(=O)N[C@@H](Cc1c[nH]c2ccccc12)C(=O)N[C@@H](CCCNC(=N)N)C(=O)N[C@@H](CC(=O)O)C(=O)N[C@H](C(=O)N[C@@H](C)C(=O)N[C@@H](CCCNC(=N)N)C(=O)N[C@@H](CC(N)=O)C(=O)N[C@@H](Cc1ccccc1)C(=O)N[C@@H](CCSC)C(=O)N[C@@H](CCCNC(=N)N)C(N)=O)C(C)C` [Peptide 88, Lauryl-RSRWRDVARNFMR-NH2] (Lauroyl-RSRWRDVARNFMR-NH2), for which, in assay [1], the “MIC C. albicans” value is listed as 32e ug/mL. Further, the “MIC S. dublin” value with Salmonella dublin (Lane) [2] was 3b ug/mL. Besides, the “MIC S. aureus” value in assay [3] is on record as 3b ug/mL. The “MIC P. acnes” value in assay [4] is 25 µg·days/mL.

“H2N-kkkkkkkkaatrvartgrsrwrdvarnfmr-NH2 (KKKKKKKKAATRVARTGRSRWRDVARNFMR; N-terminal amine, C-terminal amide) [Peptide 55]”: the IC50 in the assay with IL-12 release was above 20000 nM.

Values taken from patent US20050282755A1, “Compositions having antimicrobial activity and uses thereof” (priority 2004, published 2005).
